{
  "source": "patent US6010721A",
  "about": "“Glycyrrhetinic-acid-like factor” (The Miriam Hospital, priority 1996, dated 2000)",
  "key": {"[1]": {"molecular_target": "T1, 11β-hydroxysteroid dehydrogenase (11β-OHSD) (Rattus norvegicus, UniProt P16232)", "T1 sequence (P16232 whole entry)": "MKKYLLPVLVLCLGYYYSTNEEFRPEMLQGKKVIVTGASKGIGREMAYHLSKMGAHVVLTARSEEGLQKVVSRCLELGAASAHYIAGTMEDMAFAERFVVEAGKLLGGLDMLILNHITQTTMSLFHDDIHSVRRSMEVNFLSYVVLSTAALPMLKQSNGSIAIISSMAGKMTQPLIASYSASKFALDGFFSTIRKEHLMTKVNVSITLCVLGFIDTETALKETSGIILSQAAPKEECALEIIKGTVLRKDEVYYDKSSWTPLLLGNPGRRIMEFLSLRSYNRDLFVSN", "experiment": "Screening of endogenous substances for inhibition of 11β-OHSD (Example III)", "assay_type": "biochemical", "details": "endogenous substances screened", "excerpt": "(§1) Various endogenous substances which bear similar structural resemblances to glycyrrhetinic acid (GA) were screened for inhibitory activity against 11β-hydroxysteroid dehydrogenase (11β-OHSD) and 5β-reductase (5β-R)."}, "[2]": {"molecular_target": "T2, 5β-reductase (5β-R) (Rattus norvegicus, UniProt P31210)", "T2 construct": "[3H]-aldosterone reduction with NADPH", "T2 sequence (P31210 1-326)": "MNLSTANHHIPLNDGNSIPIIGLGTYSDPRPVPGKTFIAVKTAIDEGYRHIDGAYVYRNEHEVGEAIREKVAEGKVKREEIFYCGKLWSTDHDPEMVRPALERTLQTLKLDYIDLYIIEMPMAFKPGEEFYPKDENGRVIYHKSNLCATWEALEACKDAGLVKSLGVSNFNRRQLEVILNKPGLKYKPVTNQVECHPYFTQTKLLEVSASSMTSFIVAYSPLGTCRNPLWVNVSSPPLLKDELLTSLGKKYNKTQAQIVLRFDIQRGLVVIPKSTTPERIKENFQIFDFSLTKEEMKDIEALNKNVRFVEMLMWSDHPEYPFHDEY", "experiment": "Screening of endogenous substances for inhibition of 5β-reductase (Example III)", "assay_type": "biochemical", "details": "endogenous substances screened", "excerpt": "as §1"}, "[3]": {"test_system": "adrenalectomized rats", "experiment": "Mineralocorticoid action conferred upon corticosterone in adrenalectomized rats (Example III)", "assay_type": "in vivo", "method": "3α,5β-THDOC and bile acids were also treated to determine whether, like GA, they could confer mineralocorticoid (MC) actions upon corticosterone."}, "[4]": {"test_system": "steroid 5β-reductase", "details": "incubated with enzyme; cited from earlier work"}, "[5]": {"molecular_target": "T1, 11β-hydroxysteroid dehydrogenase (11β-OHSD)", "details": "incubated with enzyme; cited from earlier work"}, "[6]": {"test_system": "adrenalectomized male rats", "details": "cited from earlier work"}},
  "note": "“Also recorded” adds a separate entry of the source.",
  "data": [
    {"smiles": "C[C@]12CC[C@@H](O)C[C@H]1CC[C@@H]1[C@@H]2CC[C@]2(C)[C@@H](C(=O)CO)CC[C@@H]12", "note": "[3α,5β-THDOC, 3α,5β-tetrahydrodeoxycorticosterone]", "values": [
      {"measurement": "inhibition of 11β-OHSD (potency in words)", "setting": "[1]", "result": "most potent inhibitor; also recorded: inhibit both 11β-OHSD and 5β-R activity"},
      {"measurement": "inhibition of 5β-R (potency in words)", "setting": "[2]", "result": "most potent inhibitor; also recorded: inhibit both 11β-OHSD and 5β-R activity"}
    ]},
    {"smiles": "C[C@H](CCC(=O)O)[C@H]1CC[C@H]2[C@@H]3[C@H](O)C[C@@H]4C[C@H](O)CC[C@]4(C)[C@H]3C[C@H](O)[C@]12C", "note": "[CA, cholic acid]", "values": [
      {"measurement": "inhibition of 11β-OHSD (potency in words)", "setting": "[1]", "result": "moderate inhibitor"},
      {"measurement": "inhibition of 5β-R (potency in words)", "setting": "[2]", "result": "weak inhibitors"}
    ]},
    {"smiles": "C[C@H](CCC(=O)O)[C@H]1CC[C@H]2[C@@H]3[C@H](O)C[C@@H]4C[C@H](O)CC[C@]4(C)[C@H]3CC[C@]12C", "note": "[CDCA, chenodeoxycholic acid]", "values": [
      {"measurement": "antinatriuresis caused by corticosterone after pretreatment", "setting": "[3]; adrenalectomized rats pretreated with CDCA, then corticosterone", "result": "significant antinatriuresis"},
      {"measurement": "inhibition of 11β-OHSD (potency in words)", "setting": "[1]", "result": "most potent inhibitor; also recorded: inhibit both 11β-OHSD and 5β-R activity"},
      {"measurement": "inhibition of 5β-R (potency in words)", "setting": "[2]", "result": "most potent inhibitor; also recorded: inhibit both 11β-OHSD and 5β-R activity"}
    ]},
    {"smiles": "C[C@H](CCC(=O)O)[C@H]1CC[C@H]2[C@@H]3CC[C@@H]4C[C@H](O)CC[C@]4(C)[C@H]3C[C@H](O)[C@]12C", "note": "[DCA, deoxycholic acid]", "values": [
      {"measurement": "inhibition of 11β-OHSD (potency in words)", "setting": "[1]", "result": "weak inhibitor"},
      {"measurement": "inhibition of 5β-R (potency in words)", "setting": "[2]", "result": "moderate inhibitor"}
    ]},
    {"smiles": "CC1(C)[C@@H](O)CC[C@]2(C)[C@H]3C(=O)C=C4[C@@H]5C[C@@](C)(C(=O)O)CC[C@]5(C)CC[C@@]4(C)[C@]3(C)CC[C@@H]12", "note": "[Glycyrrhetinic Acid]", "values": [
      {"measurement": "inhibition of steroid 5β-reductase", "setting": "[4]", "result": "markedly inhibit"},
      {"measurement": "inhibition of 11β-OHSD", "setting": "[5]", "result": "markedly inhibit"}
    ]},
    {"smiles": "C[C@H](CCC(=O)O)[C@H]1CC[C@H]2[C@@H]3CC[C@@H]4C[C@H](O)CC[C@]4(C)[C@H]3CC[C@]12C", "note": "[LCA, lithocholic acid]", "values": [
      {"measurement": "inhibition of 11β-OHSD (potency in words)", "setting": "[1]", "result": "potent inhibitor; also recorded: inhibit both 11β-OHSD and 5β-R activity"},
      {"measurement": "inhibition of 5β-R (potency in words)", "setting": "[2]", "result": "weak inhibitors; also recorded: inhibit both 11β-OHSD and 5β-R activity"}
    ]},
    {"smiles": "CCC[C@@H]1CC2=CC(=O)CC[C@]2(C)[C@H]2CC[C@@]3(C)[C@@H](CC[C@@]3(O)CCC(=O)O)[C@H]12", "note": "[RU28318, reference compound]", "values": [
      {"measurement": "effect of antimineralocorticoid on the CDCA/corticosterone antinatriuresis", "setting": "[3]; adrenalectomized rats, CDCA + corticosterone", "result": "blocked"}
    ]},
    {"smiles": "CC1(C)[C@@H](OC(=O)CCC(=O)O)CC[C@]2(C)[C@H]3C(=O)C=C4[C@@H]5C[C@@](C)(C(=O)O)CC[C@]5(C)CC[C@@]4(C)[C@]3(C)CC[C@@H]12", "note": "[carbenoxolone sodium]", "values": [
      {"measurement": "effect on Na^+ retaining properties of aldosterone and deoxycorticosterone", "setting": "[6]", "result": "amplified the Na^+ retaining properties"},
      {"measurement": "effect on glucocorticoids corticosterone and cortisol", "setting": "[6]", "result": "display minearlocorticoid like activity"}
    ]}
  ]
}
